This note sets out measurements from ChEMBL document CHEMBL1133702.

The assay has as its target Estrogen receptor (Ovis aries) (UniProt P49885+Q9TU15).

The molecule `CN(CCOc1ccc([C@H]2C[C@]3(C)[C@@H](O)CC[C@H]3[C@@H]3CCc4cc(O)ccc4[C@H]32)cc1)C(=O)CBr` showed an RAC app of 4.22.
For the molecule `C[C@]12C[C@H](c3ccc(OCCNC(=O)CCl)cc3)[C@@H]3c4ccc(O)cc4CC[C@H]3[C@@H]1CC[C@@H]2O`, the RAC app turned out to be 3.3.
In turn, `C[C@]12C[C@H](c3ccc(OCCOS(C)(=O)=O)cc3)[C@@H]3c4ccc(O)cc4CC[C@H]3[C@@H]1CC[C@@H]2O` showed an RAC app of 39.9.
Next, `C[C@]12C[C@H](c3ccc(C#CCNC(=O)CCl)cc3)[C@@H]3c4ccc(O)cc4CC[C@H]3[C@@H]1CC[C@@H]2O`: 14.5; `CN(CCCCCOc1ccc([C@H]2C[C@]3(C)[C@@H](O)CC[C@H]3[C@@H]3CCc4cc(O)ccc4[C@H]32)cc1)C(=O)CBr`: 9.7.
Under `CN(CC#Cc1ccc([C@H]2C[C@]3(C)[C@@H](O)CC[C@H]3[C@@H]3CCc4cc(O)ccc4[C@H]32)cc1)C(=O)CCl` stands 19.4.
Under `C[C@]12C[C@H](c3ccc(OCCI)cc3)[C@@H]3c4ccc(O)cc4CC[C@H]3[C@@H]1CC[C@@H]2O` stands 10.6; under `CN(CCOc1ccc([C@H]2C[C@]3(C)[C@@H](O)CC[C@H]3[C@@H]3CCc4cc(O)ccc4[C@H]32)cc1)C(=O)CCl`, 6.96; under `C[C@]12C[C@H](c3ccc(OCCCCCNC(=O)CBr)cc3)[C@@H]3c4ccc(O)cc4CC[C@H]3[C@@H]1CC[C@@H]2O`, 17.1.
As to `C[C@]12C[C@H](c3ccc(OCCCCCI)cc3)[C@@H]3c4ccc(O)cc4CC[C@H]3[C@@H]1CC[C@@H]2O`, the RAC app came to 8.23.
